{
  "source": "paper PMC10613692",
  "about": "“Central and peripheral analgesic active components of triterpenoid saponins from Stauntonia chinensis and their action mechanism” (Frontiers in Pharmacology, 2023)",
  "format_in_all_cases": "cell-based",
  "key": {"[1]": {"target": "T1, transient receptor potential vanilloid 1 (TRPV1) (Rattus norvegicus, UniProt O35433)", "T1 construct": "native channel in rat DRG neurons", "T1 sequence (O35433 whole entry)": "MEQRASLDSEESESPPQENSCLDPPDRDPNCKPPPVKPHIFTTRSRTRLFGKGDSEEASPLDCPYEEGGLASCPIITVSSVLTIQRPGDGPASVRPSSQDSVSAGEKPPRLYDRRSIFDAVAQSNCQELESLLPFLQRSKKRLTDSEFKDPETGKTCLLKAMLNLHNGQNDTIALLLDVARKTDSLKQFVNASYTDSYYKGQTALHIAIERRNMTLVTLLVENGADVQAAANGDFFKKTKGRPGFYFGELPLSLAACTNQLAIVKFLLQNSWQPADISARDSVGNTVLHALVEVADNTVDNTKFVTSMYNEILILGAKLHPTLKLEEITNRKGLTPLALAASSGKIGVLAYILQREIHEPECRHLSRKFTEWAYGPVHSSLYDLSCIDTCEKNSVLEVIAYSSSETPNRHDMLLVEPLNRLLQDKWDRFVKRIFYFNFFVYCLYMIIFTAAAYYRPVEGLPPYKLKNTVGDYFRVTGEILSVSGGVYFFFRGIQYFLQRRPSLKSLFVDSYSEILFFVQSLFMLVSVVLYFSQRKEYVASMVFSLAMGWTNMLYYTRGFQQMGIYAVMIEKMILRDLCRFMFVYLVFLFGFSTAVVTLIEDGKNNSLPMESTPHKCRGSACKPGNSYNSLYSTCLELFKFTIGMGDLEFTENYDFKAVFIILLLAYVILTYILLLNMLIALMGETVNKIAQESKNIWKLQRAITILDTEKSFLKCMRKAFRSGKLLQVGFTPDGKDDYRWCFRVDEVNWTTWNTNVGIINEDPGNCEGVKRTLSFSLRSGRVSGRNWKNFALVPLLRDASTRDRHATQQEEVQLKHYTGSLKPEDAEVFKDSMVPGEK", "assay": "whole-cell patch clamp in rat DRG neurons, capsaicin concentration-response ([…])"}, "[2]": {"target": "T1, transient receptor potential vanilloid 1 (TRPV1)", "assay": "whole-cell patch clamp of capsaicin-induced TRPV1 currents in rat DRG neurons; capsaicin concentration curves with and without C9", "from_the_text": "whole-cell patch clamp of capsaicin-induced TRPV1 currents in rat DRG neurons; capsaicin concentration curves with and without C9 on transient receptor potential vanilloid 1 (TRPV1) | Concentration dependence curve of the inhibition on CAP-induced TRPV1 currents of C9."}, "[3]": {"target": "T1, transient receptor potential vanilloid 1 (TRPV1)", "assay": "whole-cell patch clamp of capsaicin-induced currents in rat DRG neurons, single concentration ([…])"}},
  "data": [
    {"smiles": "COc1cc(CNC(=O)CCCC/C=C/C(C)C)ccc1O", "note": "[capsaicin]", "values": [
      {"measurement": "whole-cell patch clamp in rat DRG neurons, capsaicin concentration-response (0.0)", "setting": "[1]", "result": "Concentration dependent curves of TRPV1 currents induced by CAP in the presence or absence of C9."}
    ]},
    {"smiles": "C[C@@H]1O[C@@H](O[C@H]2[C@H](O)[C@@H](O)[C@H](OC[C@H]3O[C@@H](OC(=O)[C@]45CCC(C)(C)C[C@H]4C4=CC[C@@H]6[C@@]7(C)CC[C@H](O[C@@H]8OC[C@H](O)[C@H](O)[C@H]8O)[C@@](C)(CO)[C@@H]7CC[C@@]6(C)[C@]4(C)CC5)[C@H](O)[C@@H](O)[C@@H]3O)O[C@@H]2CO)[C@H](O)[C@H](O)[C@H]1O", "note": "[Compound 9, hederasaponin D]", "values": [
      {"measurement": "EC50", "setting": "[2]", "result": "36.9 ± 4.4", "unit": "nM"}
    ]},
    {"smiles": "Oc1cc2c(cc1O)CN(C(=S)NCCc1ccc(Cl)cc1)CCC2", "note": "[capsazepine]", "values": [
      {"measurement": "whole-cell patch clamp of capsaicin-induced currents in rat DRG neurons, single", "setting": "[3]", "result": "The recorded current was almost completely suppressed by capsazepine (CPZ), proving that it was the CAP-induced TRPV1 current."}
    ]}
  ]
}
